Read-outs that look alike come from different tables or passages of the source.
Tests used:
[1] = test system: uninfected quiescent Vero-B cells; experiment: Cytotoxic assay in uninfected quiescent Vero-B cells (MTS/PMS); conditions: 4 days (Table 3)
[2] = test system: DENV-2 NGC; experiment: Antiviral activity against DENV-2 NGC in Vero-B cells (viral RNA load by RT-qPCR); format: cell-based, Dengue virus; conditions: DENV-2 in Vero-B cells, inhibition of viral RNA replication by 50% (Table 3)
[3] = test system: DENV-1 Djibouti strain D1/H/IMTSSA/98/606; experiment: Antiviral activity against DENV-1 in Vero-B cells (viral RNA load by RT-qPCR); format: cell-based, Dengue virus
[4] = test system: DENV-4 strain Dak HD 34 460; experiment: Antiviral activity against DENV-4 in Vero-B cells (viral RNA load by RT-qPCR); format: cell-based, Dengue virus; conditions: Dengue virus, DENV4, Vero B
[5] = test system: DENV-3 strain H87 prototype; experiment: Antiviral activity against DENV-3 in Vero-B cells (viral RNA load by RT-qPCR); format: cell-based, Dengue virus
[6] = in vitro; conditions: African green monkey; for CC50 at 4 days: uninfected quiescent Vero-B cells

SMILES | CC50 [1] [µM] | EC50 ([2]; Dengue virus, DENV2, Vero B) [µM] | EC50 ([3]; Dengue virus, DENV1, Vero B) [µM] | EC50 [4] [µM] | EC50 ([5]; Dengue virus, DENV3, Vero B) [µM] | further results
O=C(c1c[nH]c2ccccc12)C(Nc1cccc(OC(F)(F)F)c1)c1ccccc1 (stereo not shown) [CPD-005] | 5 | 0.93 |  |  |  | 
COc1cc(F)cc(NC(C(=O)c2c[nH]c3ccccc23)c2ccccc2)c1 (stereo not shown) [CPD-015] | 22 | 0.02 |  |  |  | 
COc1cccc(NC(C(=O)c2c[nH]c3ccccc23)c2ccc3nccnc3c2)c1 (stereo not shown) [CPD-037] | 19 | 1.2 |  |  |  | 
COc1cccc(NC(C(=O)c2c[nH]c3ccccc23)c2ccccc2)n1 (stereo not shown) [CPD-277] | 16 | 0.29 |  |  |  | 
COc1ccc(OC)c(NC(C(=O)c2c[nH]c3ccccc23)c2ccccc2)c1 (stereo not shown) [CPD-039] | 15 | 2.48 |  |  |  | 
COc1cccc(NC(C(=O)c2c[nH]c3cc(F)ccc23)c2ccccc2)c1 (stereo not shown) [CPD-123] | 15 | 0.05 | 1.6 | 2.64 | 2.56 | 
COc1cc(NC(C(=O)c2c[nH]c3ccc(CO)cc23)c2ccccc2)cc(OC)c1 (stereo not shown) [CPD-351] | 65 | 0.11 |  | 9.58 | 2.02 | 
COc1cccc(NC(C(=O)c2c[nH]c3ccccc23)c2ccccc2C)c1 (stereo not shown) [CPD-348] | 14 | 0.1 |  | 3.75 |  | 
O=C(c1c[nH]c2ccccc12)C(Nc1cc(F)cc(F)c1)c1ccccc1 (stereo not shown) [CPD-011] | 23 | 1.66 |  |  |  | 
COc1nc(NC(C(=O)c2c[nH]c3ccccc23)c2ccccc2)ns1 (stereo not shown) [CPD-070] | 90 | 3.27 |  |  |  | 
COc1cccc(NC(C(=O)c2c[nH]c3ccccc23)c2ccccc2)c1OC (stereo not shown) [CPD-040] | > 129 | 4.24 |  |  |  | 
COc1cc(NC(C(=O)c2c[nH]c3ccccc23)c2ccccc2)cc(OCCCO)c1 (stereo not shown) [CPD-361] | 50 | 0.09 |  |  |  | 
COc1cccc(NC(C(=O)c2c[nH]c3ccccc23)c2ccc(S(C)(=O)=O)cc2)c1 (stereo not shown) [CPD-021] | > 115 | 1.62 |  |  |  | 
COc1cc(NC(C(=O)c2c[nH]c3ccc(CCCO)cc23)c2ccccc2)cc(OC)c1 (stereo not shown) [CPD-353] | 56 | 0.1 |  | 7.18 | 0.17 | 
COc1cccc(NC(C(=O)c2c[nH]c3ccccc23)c2ccco2)c1 (stereo not shown) [CPD-023] | 16 | 0.3 |  |  |  | 
COc1cccc(NC(C(=O)c2c[nH]c3ccccc23)c2cccc(C)c2)c1 (stereo not shown) [CPD-138] | 20 | 0.27 | 3.21 |  | 6.52 | 
COc1cccc(NC(C(=O)c2c[nH]c3c(F)cccc23)c2ccccc2)c1 (stereo not shown) [CPD-205] | 14 | 0.06 |  |  |  | 
O=C(c1c[nH]c2ccccc12)C(Nc1cccnc1)c1ccccc1 (stereo not shown) [CPD-016] | 54 | 5.01 |  |  |  | 
O=C(c1c[nH]c2ccccc12)C(Nc1ccc2[nH]c(=O)oc2c1)c1ccccc1 (stereo not shown) [CPD-057] | 15 | 6.05 |  |  |  | 
COc1cncc(NC(C(=O)c2c[nH]c3ccccc23)c2ccccc2)n1 (stereo not shown) [CPD-252] | 68 | 0.48 |  | 2.29 | 12.6 | 
N#Cc1cccc(NC(C(=O)c2c[nH]c3ccccc23)c2ccccc2)c1 (stereo not shown) [CPD-035] | 14 | 2.11 |  |  |  | 
O=C(c1c[nH]c2ccccc12)C(Nc1cccc(F)c1)c1ccccc1 (stereo not shown) [CPD-008] | 12 | 2.42 |  |  |  | 

SMILES | CC50 [1] [µM] | EC50 ([2]; Dengue virus, DENV2, Vero B) [µM] | EC50 ([3]; Dengue virus, DENV1, Vero B) [µM] | EC50 [4] [µM] | EC50 ([5]; Dengue virus, DENV3, Vero B) [µM] | further results
CS(=O)(=O)c1cccc(NC(C(=O)c2c[nH]c3ccccc23)c2ccccc2)c1 (stereo not shown) [CPD-044] | 65 | 6.48 |  |  |  | 
COc1cc(NC(C(=O)c2c[nH]c3cccc(CCCO)c23)c2ccccc2)cc(OC)c1 (stereo not shown) [CPD-357] | 55 | 1.35 |  |  |  | 
COc1ccnc(NC(C(=O)c2c[nH]c3ccccc23)c2ccccc2)c1 (stereo not shown) [CPD-066] | 95 | 6.32 |  |  |  | 
COc1cccc(NC(C(=O)c2c[nH]c3cc(Cl)ccc23)c2ccccc2)c1 (stereo not shown) [CPD-118] | 13 | 0.01 | 0.44 |  | 3.68 | 
COc1cc(NC(C(=O)c2c[nH]c3cccc(CO)c23)c2ccccc2)cc(OC)c1 (stereo not shown) [CPD-352] | 71 | 0.29 |  | 8.6 | 3.03 | 
COc1cncc(NC(C(=O)c2c[nH]c3ccccc23)c2ccccc2)c1 (stereo not shown) [CPD-067] | 20 | 0.04 | < 0.5 |  | 1.2 | 
COc1cc(NC(C(=O)c2c[nH]c3ccc(F)cc23)c2ccc(OC)nc2)cc(OC)c1 (stereo not shown) [CPD-206] |  | 0.02 | 0.37 | 1.52 | 0.67 | CC50 at 4 days [6]: 12 µM
COc1cc(NC(C(=O)c2cn(CCCO)c3ccc(F)cc23)c2ccccc2)cc(OC)c1 (stereo not shown) [CPD-156] |  | 0.02 | 0.61 | 3.37 | 2.12 | CC50 [6]: 11 µM
COc1cc(NC(C(=O)c2c[nH]c3c(CCO)cccc23)c2ccccc2)cc(OC)c1 (stereo not shown) [CPD-339] |  | 0.09 | 0.81 | 2.93 | 0.82 | CC50 at 4 days [6]: 19 µM
COc1cccc(NC(C(=O)c2c[nH]c3ccccc23)c2ccncc2)c1 (stereo not shown) [CPD-020] | 16 | 0.14 | 15.1 |  |  | 
COc1cc(NC(C(=O)c2c[nH]c3c(C)cccc23)c2ccccc2)cc(OC)c1 (stereo not shown) [CPD-337] |  | 0.005 | 0.09 | 0.95 | 0.23 | CC50 at 4 days [6]: 15 µM
COc1cc(CO)cc(NC(C(=O)c2c[nH]c3ccccc23)c2ccc(OC)nc2)c1 (stereo not shown) [CPD-283] |  | 0.17 | 2.83 | 7.89 | 7.14 | CC50 at 4 days [6]: 56 µM
COc1cc(NC(C(=O)c2c[nH]c3ccccc23)c2ccccc2)cc(OCCN(C)C)c1 (stereo not shown) [CPD-243] | 13 | 1.69 |  |  |  | 
COc1cccc(NC(C(=O)c2c[nH]c3ccccc23)c2cn3ccccc3n2)c1 (stereo not shown) [CPD-030] |  | 0.09 | 4.8 | 13.2 | 6.24 | CC50 at 4 days [6]: > 126 µM
COc1cccc(NC(C(=O)c2c[nH]c3ccccc23)c2cncc(F)c2)c1 (stereo not shown) [CPD-321] |  | 0.11 | 0.4 | 2.74 | 0.32 | CC50 at 4 days [6]: 33 µM
COc1cccc(NC(C(=O)c2cn(C)c3ccccc23)c2ccccc2)c1 (stereo not shown) [CPD-049] |  | 0.08 | 2.21 | 2.27 | 10.5 | CC50 at 4 days [6]: > 134 µM
COc1cccc(NC(C(=O)c2c[nH]c3c(OC)cccc23)c2ccccc2)c1 (stereo not shown) [CPD-222] |  | 0.13 | 1.81 | 3.14 | 3.27 | CC50 at 4 days [6]: > 129 µM
COc1cc(NC(C(=O)c2c[nH]c3ccccc23)c2ccccc2)cnc1OC (stereo not shown) [CPD-256] |  | 0.19 | 6.76 | 19.9 | 4.49 | CC50 at 4 days [6]: 83 µM
COc1cccc(NC(C(=O)c2c[nH]c3ccc(C)cc23)c2ccccc2)c1 (stereo not shown) [CPD-130] |  | 0.03 | 0.35 | 7.42 | 1.7 | CC50 at 4 days [6]: 15 µM
COc1cncc(NC(C(=O)c2c[nH]c3ccc(F)cc23)c2ccc(OC)nc2)c1 (single isomer, unassigned) [CPD-323] | 58 |  |  |  |  | EC50 [3]: 3.62 µM; EC50 [2]: 0.35 µM; EC50 [5]: 4.99 µM
COc1cccc(NC(C(=O)c2cn(CCO)c3ccc(F)cc23)c2ccccc2)c1 (stereo not shown) [CPD-146] |  | 0.05 | 0.69 | 4.25 | 2.72 | CC50 [6]: 25 µM
O=C(c1c[nH]c2ccccc12)C(NC1CCCC1)c1ccccc1 (stereo not shown) [CPD-183] | 86 | 15.2 |  |  |  | 

From patent publication US12012411B2, “Viral replication inhibitors” (Katholieke Universiteit Leuven, priority 2011, dated 2024)
